Entries after “also recorded” stand apart in the source; their conditions may differ.
What was measured:
[1] = target: T1, farnesoid X receptor (FXR (NR4H4)) (Homo sapiens, UniProt Q96RI1); conditions: cited from earlier work
T1 sequence (Q96RI1 1-486): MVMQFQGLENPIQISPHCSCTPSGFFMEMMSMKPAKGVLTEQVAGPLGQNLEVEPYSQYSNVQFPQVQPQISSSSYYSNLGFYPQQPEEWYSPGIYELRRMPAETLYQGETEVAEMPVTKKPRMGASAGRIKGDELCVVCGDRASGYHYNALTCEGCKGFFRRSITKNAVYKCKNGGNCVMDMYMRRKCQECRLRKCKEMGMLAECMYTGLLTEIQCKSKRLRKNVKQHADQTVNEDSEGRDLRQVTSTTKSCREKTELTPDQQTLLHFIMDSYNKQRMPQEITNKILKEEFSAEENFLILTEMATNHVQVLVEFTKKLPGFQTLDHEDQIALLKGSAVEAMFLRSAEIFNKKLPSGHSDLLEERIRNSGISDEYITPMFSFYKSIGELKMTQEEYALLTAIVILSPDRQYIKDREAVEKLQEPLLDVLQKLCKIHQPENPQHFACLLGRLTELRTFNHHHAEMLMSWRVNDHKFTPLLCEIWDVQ

[2] = system: murine disease models of atherosclerosis; conditions: mouse, in vivo; cited from earlier work
[3] = system: AKR/J mice exposed to cigarette smoke for 5 months; assay: Chronic 5 months cigarette smoke exposure model, LXR agonist in diet; format: in vivo, mouse; conditions: for cigarette smoke induced protein levels of TNFα in the BAL / level of ABCA1 in BAL and lung tissue / total inflammatory cell counts in BAL: diet 0.015% w/w (30 mg/kg)
Description: Mice were chronically exposed to smoke in a specially designed chamber (Teague Enterprise, CA). 8 weeks old mice were smoke-exposed for 5 hours a day, 5 days a week for 10 days and 5 months. The total particulate matter (TPM) within the smoking chamber was regulated so that the mice receive a TPM of 100 mg/m^3. TPM was determined by a gravimetric analysis of filter samples taken during the exposure period. Mice (C57BL/6, AKR/J strain) were smoke exposed for 10 days and 5 months and compared to room air exposed controls.
Eight week-old AKR/J mice were utilized in the study and exposed to three different conditions: room air (n=8), cigarette smoke (n=8), cigarette smoke with additional treatment with LXR agonist (n=8). The LXR agonist was delivered in the diet and the concentration calculated based on the average mouse weight (30 g) and food consumption (6 g/day). Experimental food was prepared with a 0.015% LXR agonist (T0901317-Cayman Chemicals) in food (w/w) concentration corresponding to 30 mg/kg body weight. Both the control group and the custom drug diet were prepared by Research diets, Inc., New Brunswick, N.J. (Control diet (C11000)—Purina Rodent Chow 5001, Custom Diet (C13861)—Purina Rodent Chow 5001 with 0.015% LXR agonist (T0901317-Cayman Chemicals).
To determine the pulmonary compliance of the lung, a closed chest model was utilized (Foronjy et al., 2005). Respiratory mechanics were measured using a flexiVent (SCIREQ) system (Foronjy et al., 2005). Pentobarbital was used for sedation and succinylcholine for paralysis. The mice then underwent neck dissection and tracheostomy followed by a full assessment of pulmonary mechanics in triplicate utilizing the flexiVent system (Foronjy et al., 2005). After the airway measurements were performed the animals were sacrificed by CO2 inhalation and further utilized for tissue, BAL and lung analysis.
The BAL fluid was collected by perfusing the lungs with 2 ml of phosphate buffered saline (PBS). The samples were then centrifuged to pellet down the cells and re-suspended in 300 μl of PBS. To obtain the total cell count, cells were counted using a hematocytometer for which, 10 μl of the sample was utilized. To obtain the differential cell count, the slides were prepared using a cytopsin. 150 μl of sample was taken to prepare slides. These slides were stained using Hematoxylin and Eosin (H&E) and a number of regular and foamy like macrophages and lymphocytes counted under the microscope. A foamy like phenotype (Hirama et al., 2007) was identified by examining the sequential increase in macrophage size. Lipid staining was not performed.
Histological evaluation of the inflammation was performed on the left lungs which were fixed using 10% formalin. Fixed tissue was stained with H&E and Trichrome and mean linear intercept (MLI) determined as described previously (Foronjy et al., 2008; Foronjy et al., 2005; Foronjy et al., 2001; Foronjy et al., 2010; Foronjy et al., 2008a; Foronjy et al., 2006; Foronjy et al., 2003; Geraghty et al., 2013).
Total RNA was extracted from specimens of lung tissue 0.3 cm^3 in size with the use of the RNeasy kit (Qiagen, Germantown, Md.) (Goldklang et al., 2012). The RNA was then further processed to obtain cDNA, which was used for Real Time (RT) PCR analysis. TaqMan gene expression assays (Applied Biosystems, Carlsbad, Calif.) were performed to assess gene-transcript levels with the use of an ABI Prism 7900HT Sequence Detection System (Applera, Foster City, Calif.) (Goldklang et al., 2012). The following primers were used to check the respective gene expression: ABCA1 (Hs01059118_m1), ABCG1 (Hs00245154_m1), MMP-9 (Mm00442991_m1), IL-1β (Mm00434227_g1), TNF-α (Mm00443260_g1) and GAPDH (4352932E) from TaqMan Gene Expression Assays, Applied Biosystems, CA. β-actin was used as a control since it is a housekeeping gene.

[4] = 5 months smoke, mass spectrometry
[5] = 5 months smoke, listed as LXR agonist
[6] = diet 0.015% w/w, 5 months smoke

In the case of `O=S(=O)(c1ccccc1)N(CC(F)(F)F)c1ccc(C(O)(C(F)(F)F)C(F)(F)F)cc1` [T0901317, N-(2,2,2-trifluoroethyl)-N-[4-[2,2,2-trifluoro-1-hydroxy-1-(trifluoromethyl)ethyl]phenyl]-benzenesulfonamide], the “activation of FXR compared with chenodeoxycholic acid” value [1] is given as “more potently than a natural bile acid FXR ligand, chenodeoxycholic acid”, the “potency as activator of LXR versus FXR” value [1] is given as “much more potent activator of LXR than FXR” and the “cholesterol level in serum and liver” value [2] is given as “lowers”. The development of atherosclerosis [2] was “inhibits”, the “collagen airway and vessels deposition” value ([3]; 5 months smoke, Masson Trichrome staining) was “decrease” and the “cigarette smoke induced increase in C14 and C16 ceramides in BAL” value [3, 4] was “reduced”. For the same compound, the “total level of ceramides in the BAL” value [3, 4] was “reduced”, the “smoke induced increase in IFNγ and MCP-1 in the lung” value ([3]; diet 0.015% w/w) was “inhibited” and the “cigarette smoke induced protein levels of TNFα in the BAL” value ([3]; 5 months smoke) was “decreased”. The “level of ABCA1 in BAL and lung tissue” value ([3]; 5 months smoke) was “induced”, the “total inflammatory cell counts in BAL” value ([3]; 5 months smoke) was “decrease” and the “cigarette smoke induced protein levels of TNFα in the BAL” value [3, 5] was “abrogated”. For the same compound, the “level of ABCA1 in BAL and lung tissue” value [3, 5] was “successfully increased; also recorded: restored”, the “total inflammatory cell counts in BAL” value [3, 5] was “significantly decreased” and the “lung structure / emphysema development by mean linear intercept” value [3, 6] was “preserved the lung structure and blocked emphysema development”. For the same compound, the “mRNA expression of MMP-9 and TNFα in the lungs” value [3, 6] was “No significant changes”, the “mRNA levels of MMP-9 in the BAL cells” value [3, 6] was “not significantly altered” and the “alveolar macrophage population exhibiting a foam cell-like phenotype” value ([3]; diet 0.015% w/w, 5 months smoke, differential BAL cell counts) was “significantly reduced”. The lung elastance ([3]; diet 0.015% w/w, 5 months smoke, flexiVent) was “increase”, the lung compliance ([3]; diet 0.015% w/w, 5 months smoke, flexiVent, vs untreated smoke exposed mice) was “decrease” and the “smoke induced MMP-9 activity in the BAL” value ([3]; diet 0.015% w/w, gelatin zymography) was “attenuated”.
